Data taken from article PMC3261141, “Largazole and Its Derivatives Selectively Inhibit Ubiquitin Activating Enzyme (E1)” (PLoS ONE, 2012).

Legend:
[1] = molecular target: T1, ubiquitin-activating enzyme E1 (UBA1) (Homo sapiens, UniProt P22314); test: E1-ubiquitin thioester gel assay with fluorescein-ubiquitin; type: biochemical
T1 construct: recombinant human UBA1, GST tag removed by thrombin
T1 sequence (P22314 2-1058): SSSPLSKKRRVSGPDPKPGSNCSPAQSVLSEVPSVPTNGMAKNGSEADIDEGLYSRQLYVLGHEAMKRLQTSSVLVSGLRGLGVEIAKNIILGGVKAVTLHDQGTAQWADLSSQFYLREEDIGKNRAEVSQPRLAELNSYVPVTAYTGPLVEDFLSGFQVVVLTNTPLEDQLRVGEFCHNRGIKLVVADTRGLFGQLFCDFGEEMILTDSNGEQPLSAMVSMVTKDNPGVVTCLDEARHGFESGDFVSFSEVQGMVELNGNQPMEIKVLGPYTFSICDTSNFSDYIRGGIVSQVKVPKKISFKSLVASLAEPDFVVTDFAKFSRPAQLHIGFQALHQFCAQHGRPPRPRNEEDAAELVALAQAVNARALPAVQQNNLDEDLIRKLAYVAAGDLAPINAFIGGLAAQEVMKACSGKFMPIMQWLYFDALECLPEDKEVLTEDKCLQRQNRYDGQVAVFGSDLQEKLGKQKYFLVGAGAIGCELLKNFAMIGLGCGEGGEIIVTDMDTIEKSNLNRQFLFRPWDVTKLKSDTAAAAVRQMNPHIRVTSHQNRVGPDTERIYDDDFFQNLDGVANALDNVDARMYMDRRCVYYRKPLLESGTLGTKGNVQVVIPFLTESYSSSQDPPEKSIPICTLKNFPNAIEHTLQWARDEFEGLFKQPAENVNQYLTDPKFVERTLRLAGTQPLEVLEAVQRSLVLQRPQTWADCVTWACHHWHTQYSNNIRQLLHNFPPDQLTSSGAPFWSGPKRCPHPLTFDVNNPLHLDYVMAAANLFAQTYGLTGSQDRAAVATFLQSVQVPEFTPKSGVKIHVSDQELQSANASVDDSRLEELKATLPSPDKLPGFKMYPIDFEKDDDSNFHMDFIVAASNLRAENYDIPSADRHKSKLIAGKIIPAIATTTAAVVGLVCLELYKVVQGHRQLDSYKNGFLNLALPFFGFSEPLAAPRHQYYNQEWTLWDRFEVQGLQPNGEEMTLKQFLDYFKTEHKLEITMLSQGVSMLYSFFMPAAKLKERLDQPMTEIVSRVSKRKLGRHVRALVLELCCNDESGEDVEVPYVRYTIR

[2] = molecular target: T1, ubiquitin-activating enzyme E1 (UBA1); test: thioester gel assay; PPi:ATP and AMP:ATP exchange assays; type: biochemical

CCCCCCCC(=O)SCC/C=C/[C@@H]1CC(=O)NCc2nc(cs2)C2=N[C@@](C)(CS2)C(=O)N[C@@H](C(C)C)C(=O)O1 [L, Largazole] was tested, and the IC50 [1] was ~29 µM.

Work on CCCCCCCC(=O)CCC/C=C/[C@@H]1CC(=O)NCc2nc(cs2)C2=N[C@@](C)(CS2)C(=O)N[C@@H](C(C)C)C(=O)O1 [K, Largazole ketone] yielded an IC50 [2] of ~30 µM.

With CCCCCCCC(=O)OCC/C=C/[C@@H]1CC(=O)NCc2nc(cs2)C2=N[C@@](C)(CS2)C(=O)N[C@@H](C(C)C)C(=O)O1 [E, Largazole ester] the IC50 [1] was ~25 µM.
